Test results taken from US20240115512A1, “PROCESS FOR PREPARING NANOFORMULATION FOR DELIVERY OF BERBAMINE” (priority 2021, published 2024).
≈ marks a conversion by molar mass, not a printed value.

Legend:
Assay in all cases: MIC by serial dilution method
Type in all cases: cell-based
[1] = system: Acinetobacter baumannii (ATCC 19606); details: ATCC19606
Method: (§1) Berbamine was tested for a panel of bacterial strains including Pseudomonas aeruginosa (ATCC 27853), Acinetobacter baumannii (ATCC 19606), Staphylococcus aureus (ATCC 29213) and clinical isolates of Klebsiella pneumoniae, Staphylococcus epidermidis, Staphylococcus hemolyticus and Burkholderia cepacia complex using serial dilution method. Ceftazidime was used as the standard antibiotic for validating the protocol.

[2] = system: Klebsiella pneumoniae (clinical isolate)
Method: as §1

[3] = system: Staphylococcus aureus (ATCC 29213); details: ATCC29213
Method: as §1

[4] = system: Staphylococcus epidermidis (clinical isolate)
Method: as §1

[5] = system: Staphylococcus hemolyticus (clinical isolate)
Method: as §1

COc1cc2c3cc1Oc1c(OC)c(OC)cc4c1[C@@H](Cc1ccc(O)c(c1)Oc1ccc(cc1)C[C@@H]3N(C)CC2)N(C)CC4 [berbamine]
MIC [1]: 256 µg/mL (≈ 421 µM)
MIC [2]: > 4100 µg/mL
MIC [3]: 256 µg/mL (≈ 421 µM)
MIC [4]: 128 µg/mL (≈ 210 µM)
MIC [5]: 128 µg/mL (≈ 210 µM)
